Experimental data from patent US20150044244A1, “COMBINED FACILITATOR, ANTIGEN AND DNA VACCINE FOR PREVENTING AND TREATING AUTOIMMUNE DISEASES” (BEIJING ADVANCCINE BIOTECHNOLOGY CO. LTD., priority 2011, published 2015).

Test system: naive CD4+CD25− T cells
Experiment: In vitro induction of iTregs by DCreg with cytokine blockade
Format: cell-based, mice
Conditions: blockade during co-culture (stage 1)
Description: In vitro T cell priming assays. To generate CD4^+CD25^−Foxp3^+ cells in vitro, Naive CD11c^+ dendritic cells (2×10^5) were cultured in 6-well, and stimulated with pVAX-Derp1 (10 μg/ml) plus Derp1 peotein (10 μg/ml) in the present of anti-IL10 or TGF-β for 48 hrs. Three groups of dendritic cells pretreated were added to culture medium with naive CD4^+CD25^− T cells (1×10^6) in RPMI 1640 each 48 hrs for 3 times. And then GFP expression in CD4^+CD25^− T cells were analyzed by FACS. To check the roles of cytokines during DCreg induce iTregs, we co-cultured CD11c^+ DC pretreated with pVAX-Derp1 (10 μg/ml) plus Derp1 peotein (10 μg/ml) with naive T cells, synchronously, plus anti-IL-10, anti-TGF-β or TGF-β receptor inhibitor, SB-525334 (14.3 nM) each 48 hrs for 3 times. […]
As reported, blockade of TGF-β and IL-10 could demolish the development and suppressive function of iTregs. […] The roles of TGF-β and IL-10 were detected during the induction of iTregs by DCreg in vitro. GFP expression in CD4^+CD25^− T cells was detected after 72 hrs of co-culture with CD11C^+ DCreg 3 times each two days in the presence of anti-IL-10 or anti-TGF-β as stage 1 in FIG. 13A. […]

For Cc1cccc(-c2[nH]c(C(C)(C)C)nc2-c2ccc3nccnc3c2)n1 [SB-525334], the “generation of CD4+CD25−GFP+ iTregs by DCreg” value was “could decrease the iTreg induction”.
